# Source: patent US6472348B1, “Pyridone derivatives and herbicides” (Kumiai Chemical Industry Co., Ltd., priority 1996, dated 2002)
# How the values were obtained:
# [1] = tested on: barnyardgrass (Ec); experiment: Test Example 1: herbicidal effects by paddy field soil treatment; format: in vivo; details: 100 g of the active ingredient per 10 ares, 21st day after the application, index 0-5 of Table 47;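 also: grade of growth control; 5 = at least 90%; 4 = 70 to 90%; 3 = 50 to 70%; 2 = 30 to 50%; 1 = 10 to 30%; 0 = under 10%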
# In short: (§1)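 Herbicidal effect was scored against a graded standard 21 days after treatment. Seeds were sown in puddled, leveled paddy soil flooded to 3 cm depth, and the active ingredient was applied at 100 g per 10 ares before greenhouse culture.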
# [2] = tested on: bulrush (Sc); experiment: as above; format: in vivo; details: 100 g of the active ingredient per 10 ares, 21st day after the application, index 0-5 of Table 47;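 also: grade of growth control; 5 = at least 90%; 4 = 70 to 90%; 3 = 50 to 70%; 2 = 30 to 50%; 1 = 10 to 30%; 0 = under 10%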
# In short: as §1
# [3] = tested on: monochoria (Mo); experiment: as above; format: in vivo; details: 100 g of the active ingredient per 10 ares, 21st day after the application, index 0-5 of Table 47;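 also: grade of growth control; 5 = at least 90%; 4 = 70 to 90%; 3 = 50 to 70%; 2 = 30 to 50%; 1 = 10 to 30%; 0 = under 10%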
# In short: as §1
# [4] = tested on: Digitaria ciliaris (Di); experiment: Test Example 2: herbicidal effects by upland field soil treatment; format: in vivo; details: 100 g of the active ingredient per 10 ares, 21st day after the application, index 0-5 of Table 47;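 also: grade of growth control; 5 = at least 90%; 4 = 70 to 90%; 3 = 50 to 70%; 2 = 30 to 50%; 1 = 10 to 30%; 0 = under 10%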
# Text: (§2) (Test on Herbicidal Effects by Upland Field Soil Treatment)
# [5] = tested on: barnyardgrass (Ec); experiment: as above; format: in vivo; details: 100 g of the active ingredient per 10 ares, 21st day after the application, index 0-5 of Table 47
# Text: as §2
# [6] = tested on: common lambsquarters (Ch); experiment: as above; format: in vivo; details: 100 g of the active ingredient per 10 ares, 21st day after the application, index 0-5 of Table 47
# Text: as §2
# [7] = tested on: pale smartweed (Po); experiment: as above; format: in vivo; details: 100 g of the active ingredient per 10 ares, 21st day after the application, index 0-5 of Table 47
# Text: as §2
# [8] = tested on: rice flatsedge (Ci); experiment: as above; format: in vivo; details: 100 g of the active ingredient per 10 ares, 21st day after the application, index 0-5 of Table 47
# Text: as §2
# [9] = tested on: slender amaranth (Am); experiment: as above; format: in vivo; details: 100 g of the active ingredient per 10 ares, 21st day after the application, index 0-5 of Table 47
# Text: as §2
# [10] = tested on: Diaitaria ciliaris (Di); experiment: Test Example 3: herbicidal effects by upland field foliage treatment; format: in vivo; set-up: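 grade of growth control; 5 = at least 90%; 4 = 70 to 90%; 3 = 50 to 70%; 2 = 30 to 50%; 1 = 10 to 30%; 0 = under 10%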; details: 100 g of the active ingredient per 10 ares, evaluated on the 14th day after treatment
# In short: (§3)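 Sowing into sand pots with a 120 cm^2 surface, followed by soil covering and 2 weeks of greenhouse growth, preceded the leaf treatment. Scoring of weed control took place on the 14th day afterwards according to set evaluation criteria.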
# [11] = tested on: barnyardgrass (Ec); experiment: as above; format: in vivo; set-up: scale not given here; details: 100 g of the active ingredient per 10 ares, evaluated on the 14th day after treatment
# In short: as §3
# [12] = tested on: common lambsquarters (Ch); experiment: as above; format: in vivo; set-up: scale not given here; details: 100 g of the active ingredient per 10 ares, evaluated on the 14th day after treatment
# In short: as §3
# [13] = tested on: pale smartweed (Po); experiment: as above; format: in vivo; set-up: scale not given here; details: 100 g of the active ingredient per 10 ares, evaluated on the 14th day after treatment
# In short: as §3
# [14] = tested on: rice flatsedge (Ci); experiment: as above; format: in vivo; set-up: scale not given here; details: 100 g of the active ingredient per 10 ares, evaluated on the 14th day after treatment
# In short: as §3
# [15] = tested on: slender amaranth (Am); experiment: as above; format: in vivo; set-up: scale not given here; details: 100 g of the active ingredient per 10 ares, evaluated on the 14th day after treatment
# In short: as §3
# [16] = tested on: wheat (Tr); experiment: Test Example 9: crop plant selectivity by upland field foliage treatment (wheat), phytotoxicity; details: dose 1.6 g ai/10a, 14th day after treatment
# In short: (§4)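 Wheat and broadleaf weeds were sown together in sand-filled pots and grown for 2 weeks in a greenhouse before foliar treatment. Herbicidal effect on weeds and phytotoxicity to wheat were scored visually against set grading standards on day 14 after treatment, with plants kept in the greenhouse.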
# [17] = tested on: China jute (Ab); experiment: Test Example 9: crop plant selectivity by upland field foliage treatment (wheat), herbicidal effects; format: in vivo; set-up: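 grade of growth control; 5 = at least 90%; 4 = 70 to 90%; 3 = 50 to 70%; 2 = 30 to 50%; 1 = 10 to 30%; 0 = under 10%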; details: dose 1.6 g ai/10a, 14th day after treatment
# In short: as §4
# [18] = tested on: common lambsquarters (Ch); experiment: as above; format: in vivo; set-up: scale not given here; details: dose 1.6 g ai/10a, 14th day after treatment
# In short: as §4
# [19] = tested on: pale smartweed (Po); experiment: as above; format: in vivo; set-up: scale not given here; details: dose 1.6 g ai/10a, 14th day after treatment
# In short: as §4
# [20] = tested on: slender amaranth (Am); experiment: as above; format: in vivo; set-up: scale not given here; details: dose 1.6 g ai/10a, 14th day after treatment
# In short: as §4
# [21] = tested on: soybean (Gl); experiment: Test Example 10: crop plant selectivity by upland field foliage treatment (soybean), phytotoxicity; details: dose 1.6 g ai/10a, 14th day after treatment
# Experimental: (§5) (Test on Crop Plant Selectivity by Upland Field Foliage Treatment)
# (§6) In a plastic pot (surface area: 600 cm^2) filled with sand, soybean (Gl), pale smartweed (Po), slender amaranth (Am), common lambsquarters (Ch) and China jute (Ab) were sown and cultured in a green house for 2 weeks. […] The plants were then cultured in a green house, and the evaluation of the herbicidal effects and phytotoxicity was conducted on the 14th day after the treatment in accordance with the standards as identified in Table 47.
# [22] = tested on: China jute (Ab); experiment: Test Example 10: crop plant selectivity by upland field foliage treatment (soybean), herbicidal effects; format: in vivo; details: dose 1.6 g ai/10a, 14th day after treatment
# Experimental: as §5, §6
# [23] = tested on: common lambsquarters (Ch); experiment: as above; format: in vivo; details: dose 1.6 g ai/10a, 14th day after treatment
# Experimental: as §5, §6
# [24] = tested on: pale smartweed (Po); experiment: as above; format: in vivo; details: dose 1.6 g ai/10a, 14th day after treatment
# Experimental: as §5, §6
# [25] = tested on: slender amaranth (Am); experiment: as above; format: in vivo; details: dose 1.6 g ai/10a, 14th day after treatment
# Experimental: as §5, §6
# [26] = tested on: corn (Ze); experiment: Test Example 11: crop plant selectivity by upland field foliage treatment (corn), phytotoxicity; details: upland field foliage treatment, dose 1.6 g ai/10a, 14th day after treatment
# In short: (§7)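 Corn with pale smartweed, slender amaranth, common lambsquarters and China jute sown in sand-filled pots and grown 2 weeks in a greenhouse before foliage treatment. Herbicidal effect and crop phytotoxicity scored on day 14 after treatment against a rating standard.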
# [27] = tested on: China jute (Ab); experiment: Test Example 11: crop plant selectivity by upland field foliage treatment (corn), herbicidal effects; format: in vivo; set-up: scale not given here; details: upland field foliage treatment (corn test), dose 1.6 g ai/10a, 14th day after treatment
# In short: as §7
# [28] = tested on: common lambsquarters (Ch); experiment: as above; format: in vivo; set-up: scale not given here; details: upland field foliage treatment (corn test), dose 1.6 g ai/10a, 14th day after treatment
# In short: as §7
# [29] = tested on: pale smartweed (Po); experiment: as above; format: in vivo; set-up: scale not given here; details: upland field foliage treatment (corn test), dose 1.6 g ai/10a, 14th day after treatment
# In short: as §7
# [30] = tested on: slender amaranth (Am); experiment: as above; format: in vivo; set-up: scale not given here; details: upland field foliage treatment (corn test), dose 1.6 g ai/10a, 14th day after treatment
# In short: as §7
SMILES,Herbicidal effects Ec [1],Herbicidal effects Sc [2],Herbicidal effects Mo [3],Herbicidal effects Di [4],Herbicidal effects Ec [5],Herbicidal effects Ch [6],Herbicidal effects Po [7],Herbicidal effects Ci [8],Herbicidal effects Am [9],Herbicidal effects Di [10],Herbicidal effects Ec [11],Herbicidal effects Ch [12],Herbicidal effects Po [13],Herbicidal effects Ci [14],Herbicidal effects Am [15],Phytotoxicity Tr [16],Herbicidal effects Ab [17],Herbicidal effects Ch [18],Herbicidal effects Po [19],Herbicidal effects Am [20],also measured
CCC(=O)c1cc(-c2ccc(C(F)(F)F)n(C)c2=O)c(F)cc1Cl [1-69],5,5,5,5,5,5,5,5,5,5,5,5,5,5,5,1,5,5,5,5,Phytotoxicity Gl [21]: 2; Herbicidal effects Ab [22]: 5; Herbicidal effects Ch [23]: 5; Herbicidal effects Po [24]: 5; Herbicidal effects Am [25]: 5; Phytotoxicity Ze [26]: 2; Herbicidal effects Ab [27]: 5; Herbicidal effects Ch [28]: 5; Herbicidal effects Po [29]: 5; Herbicidal effects Am [30]: 5
Cn1c(C(F)(F)F)ccc(-c2cc(OC3CCCC3)c(Cl)cc2F)c1=O [1-26],5,5,5,5,5,5,5,5,5,5,5,5,5,5,5,2,5,5,5,5,Phytotoxicity Gl [21]: 2; Herbicidal effects Ab [22]: 5; Herbicidal effects Ch [23]: 5; Herbicidal effects Po [24]: 5; Herbicidal effects Am [25]: 5; Phytotoxicity Ze [26]: 2; Herbicidal effects Ab [27]: 5; Herbicidal effects Ch [28]: 5; Herbicidal effects Po [29]: 5; Herbicidal effects Am [30]: 5
